How the values were obtained:
Assay in all cases: Test F preemergence/postemergence greenhouse plant response rating 0 to 100
Conditions in all cases: 0 to 100 scale
[1] = tested on: green foxtail; type: in vivo, Setaria viridis
From the text: (§1) Compounds evaluated in this test were formulated in a non-phytoxic solvent and applied to the soil surface before plant seedlings emerged (preemergence application) and to plants that were in the one-to-four leaf stage (postemergence application). A sandy loam soil was used for the preemergence test while a mixture of sandy loam soil and greenhouse potting mix in a 60:40 ratio was used for the postemergence test. Test compounds were applied within approximately one day after planting seeds for the preemergence test. Plantings of these crops and weed species were adjusted to produce plants of appropriate size for the postemergence test. All plant species were grown using normal greenhouse practices. Crop and weed species include winter barley (Hordeum vulgare cv. ‘Igri’), blackgrass (Alopecurus myosuroides), chickweed (Stellaria media), downy brome (Bromus tectorum), field violet (Viola arvensis), galium (Galium aparine), green foxtail (Setaria viridis), kochia (Kochia scoparia), lambsquarters (Chenopodium album), speedwell (Veronica persica), rape (Brassica napus), ryegrass (Lolium multiflorum), sugar beet (Beta vulgaris cv. ‘USl’), sunflower (Helianthus annuus cv. ‘Russian Giant’), spring wheat (Triticum aestivum cv. ‘ERA’), winter wheat (Triticum aestivum cv. ‘Talent’), wild buckwheat (Polygonum convolvulus), wild mustard (Sinapis arvensis), wild oat (Avena fatua), and wild radish (Raphanus raphanistrum). Blackgrass, galium and wild oat were treated at two growth stages. […] Treated plants and untreated controls were maintained in a greenhouse for approximately 21 to 28 days, after which all treated plants were compared to untreated controls and visually evaluated. […] A dash response (-) means no test result.

[2] = tested on: kochia; type: in vivo, Kochia scoparia
From the text: as §1

[3] = tested on: lambsquarters; type: in vivo, Chenopodium album
From the text: as §1

[4] = tested on: rape; type: in vivo, Brassica napus
From the text: as §1

[5] = tested on: wild mustard; type: in vivo, Sinapis arvensis
From the text: as §1

[6] = tested on: wild oat; type: in vivo, Avena fatua
From the text: as §1

[7] = POSTEMERGENCE, Rate 4 g/ha, stage (1) two to three leaves
[8] = POSTEMERGENCE, Rate 4 g/ha, stage (2) approximately four leaves or initial tillering
[9] = POSTEMERGENCE, Rate 8 g/ha, stage (1) two to three leaves
[10] = POSTEMERGENCE, Rate 8 g/ha, stage (2) approximately four leaves or initial tillering
[11] = POSTEMERGENCE, Rate 16 g/ha, stage (1) two to three leaves
[12] = POSTEMERGENCE, Rate 16 g/ha, stage (2) approximately four leaves or initial tillering
[13] = POSTEMERGENCE, Rate 32 g/ha, stage (1) two to three leaves
[14] = POSTEMERGENCE, Rate 32 g/ha, stage (2) approximately four leaves or initial tillering

C#CCOc1cc(-c2nn3c(c2Br)CCCC3)c(F)cc1Cl [Compound 26]
Green foxtail plant response rating ([1]; POSTEMERGENCE, Rate 4 g/ha): 0 | Green foxtail plant response rating ([1]; POSTEMERGENCE, Rate 8 g/ha): 0 | Green foxtail plant response rating ([1]; POSTEMERGENCE, Rate 16 g/ha): 50 | Green foxtail plant response rating ([1]; POSTEMERGENCE, Rate 32 g/ha): 60 | Green foxtail plant response rating ([1]; POSTEMERGENCE, Rate 64 g/ha): 70 | Green foxtail plant response rating ([1]; POSTEMERGENCE, Rate 125 g/ha): 80 | Green foxtail plant response rating ([1]; POSTEMERGENCE, Rate 250 g/ha): 50 | Green foxtail plant response rating ([1]; PREEMERGENCE, Rate 4 g/ha): 0 | Green foxtail plant response rating ([1]; PREEMERGENCE, Rate 8 g/ha): 0 | Green foxtail plant response rating ([1]; PREEMERGENCE, Rate 16 g/ha): 20 | Green foxtail plant response rating ([1]; PREEMERGENCE, Rate 32 g/ha): 50 | Green foxtail plant response rating ([1]; PREEMERGENCE, Rate 64 g/ha): 100 | Green foxtail plant response rating ([1]; PREEMERGENCE, Rate 125 g/ha): 100 | Green foxtail plant response rating ([1]; PREEMERGENCE, Rate 250 g/ha): 100 | Kochia plant response rating ([2]; POSTEMERGENCE, Rate 4 g/ha): 100 | Kochia plant response rating ([2]; POSTEMERGENCE, Rate 8 g/ha): 100 | Kochia plant response rating ([2]; POSTEMERGENCE, Rate 16 g/ha): 100 | Kochia plant response rating ([2]; POSTEMERGENCE, Rate 32 g/ha): 100 | Kochia plant response rating ([2]; POSTEMERGENCE, Rate 64 g/ha): 100 | Kochia plant response rating ([2]; POSTEMERGENCE, Rate 125 g/ha): 100 | Kochia plant response rating ([2]; POSTEMERGENCE, Rate 250 g/ha): 100 | Kochia plant response rating ([2]; PREEMERGENCE, Rate 4 g/ha): 0 | Kochia plant response rating ([2]; PREEMERGENCE, Rate 8 g/ha): 0 | Kochia plant response rating ([2]; PREEMERGENCE, Rate 16 g/ha): 80 | Kochia plant response rating ([2]; PREEMERGENCE, Rate 32 g/ha): 80 | Kochia plant response rating ([2]; PREEMERGENCE, Rate 64 g/ha): 100 | Kochia plant response rating ([2]; PREEMERGENCE, Rate 125 g/ha): 100 | Lambsquarters plant response rating ([3]; POSTEMERGENCE, Rate 8 g/ha): 50 | Lambsquarters plant response rating ([3]; POSTEMERGENCE, Rate 16 g/ha): 50 | Lambsquarters plant response rating ([3]; POSTEMERGENCE, Rate 32 g/ha): 100 | Lambsquarters plant response rating ([3]; POSTEMERGENCE, Rate 64 g/ha): 100 | Lambsquarters plant response rating ([3]; POSTEMERGENCE, Rate 125 g/ha): 100 | Lambsquarters plant response rating ([3]; POSTEMERGENCE, Rate 250 g/ha): 100 | Lambsquarters plant response rating ([3]; PREEMERGENCE, Rate 4 g/ha): 0 | Lambsquarters plant response rating ([3]; PREEMERGENCE, Rate 8 g/ha): 70 | Lambsquarters plant response rating ([3]; PREEMERGENCE, Rate 16 g/ha): 80 | Lambsquarters plant response rating ([3]; PREEMERGENCE, Rate 32 g/ha): 100 | Lambsquarters plant response rating ([3]; PREEMERGENCE, Rate 64 g/ha): 100 | Lambsquarters plant response rating ([3]; PREEMERGENCE, Rate 125 g/ha): 100 | Rape plant response rating ([4]; POSTEMERGENCE, Rate 4 g/ha): 0 | Rape plant response rating ([4]; POSTEMERGENCE, Rate 8 g/ha): 0 | Rape plant response rating ([4]; POSTEMERGENCE, Rate 16 g/ha): 50 | Rape plant response rating ([4]; POSTEMERGENCE, Rate 32 g/ha): 100 | Rape plant response rating ([4]; POSTEMERGENCE, Rate 64 g/ha): 100 | Rape plant response rating ([4]; POSTEMERGENCE, Rate 125 g/ha): 100 | Rape plant response rating ([4]; POSTEMERGENCE, Rate 250 g/ha): 100 | Rape plant response rating ([4]; PREEMERGENCE, Rate 4 g/ha): 0 | Rape plant response rating ([4]; PREEMERGENCE, Rate 8 g/ha): 0 | Rape plant response rating ([4]; PREEMERGENCE, Rate 16 g/ha): 0 | Rape plant response rating ([4]; PREEMERGENCE, Rate 32 g/ha): 20 | Rape plant response rating ([4]; PREEMERGENCE, Rate 64 g/ha): 60 | Rape plant response rating ([4]; PREEMERGENCE, Rate 125 g/ha): 80 | Rape plant response rating ([4]; PREEMERGENCE, Rate 250 g/ha): 100 | Wild mustard plant response rating ([5]; POSTEMERGENCE, Rate 4 g/ha): 70 | Wild mustard plant response rating ([5]; POSTEMERGENCE, Rate 8 g/ha): 70 | Wild mustard plant response rating ([5]; POSTEMERGENCE, Rate 16 g/ha): 100 | Wild mustard plant response rating ([5]; POSTEMERGENCE, Rate 32 g/ha): 100 | Wild mustard plant response rating ([5]; POSTEMERGENCE, Rate 64 g/ha): 100 | Wild mustard plant response rating ([5]; POSTEMERGENCE, Rate 125 g/ha): 100 | Wild mustard plant response rating ([5]; POSTEMERGENCE, Rate 250 g/ha): 100 | Wild mustard plant response rating ([5]; PREEMERGENCE, Rate 4 g/ha): 0 | Wild mustard plant response rating ([5]; PREEMERGENCE, Rate 8 g/ha): 0 | Wild mustard plant response rating ([5]; PREEMERGENCE, Rate 16 g/ha): 40 | Wild mustard plant response rating ([5]; PREEMERGENCE, Rate 32 g/ha): 50 | Wild mustard plant response rating ([5]; PREEMERGENCE, Rate 64 g/ha): 80 | Wild mustard plant response rating ([5]; PREEMERGENCE, Rate 125 g/ha): 70 | Wild oat (1) plant response rating [6, 7]: 0 | Wild oat (2) plant response rating [6, 8]: 0 | Wild oat (1) plant response rating [6, 9]: 0 | Wild oat (2) plant response rating [6, 10]: 0 | Wild oat (1) plant response rating [6, 11]: 0 | Wild oat (2) plant response rating [6, 12]: 0 | Wild oat (1) plant response rating [6, 13]: 25 | Wild oat (2) plant response rating [6, 14]: 15 | Wild oat (1) plant response rating ([6]; POSTEMERGENCE, Rate 64 g/ha, stage (1) two to three leaves): 40 | Wild oat (2) plant response rating ([6]; POSTEMERGENCE, Rate 64 g/ha, stage (2) approximately four leaves or initial tillering): 15 | Wild oat (1) plant response rating ([6]; POSTEMERGENCE, Rate 125 g/ha, stage (1) two to three leaves): 45 | Wild oat (2) plant response rating ([6]; POSTEMERGENCE, Rate 125 g/ha, stage (2) approximately four leaves or initial tillering): 20 | Wild oat (1) plant response rating ([6]; POSTEMERGENCE, Rate 250 g/ha, stage (1) two to three leaves): 50 | Wild oat (2) plant response rating ([6]; POSTEMERGENCE, Rate 250 g/ha, stage (2) approximately four leaves or initial tillering): 30 | Wild oat (1) plant response rating ([6]; PREEMERGENCE, Rate 4 g/ha, Wild oat (1)): 0 | Wild oat (2) plant response rating ([6]; PREEMERGENCE, Rate 4 g/ha, Wild oat (2)): 0 | Wild oat (1) plant response rating ([6]; PREEMERGENCE, Rate 8 g/ha, Wild oat (1)): 0 | Wild oat (2) plant response rating ([6]; PREEMERGENCE, Rate 8 g/ha, Wild oat (2)): 0 | Wild oat (1) plant response rating ([6]; PREEMERGENCE, Rate 16 g/ha, Wild oat (1)): 0 | Wild oat (2) plant response rating ([6]; PREEMERGENCE, Rate 16 g/ha, Wild oat (2)): 0 | Wild oat (1) plant response rating ([6]; PREEMERGENCE, Rate 32 g/ha, Wild oat (1)): 0 | Wild oat (2) plant response rating ([6]; PREEMERGENCE, Rate 32 g/ha, Wild oat (2)): 0 | Wild oat (1) plant response rating ([6]; PREEMERGENCE, Rate 64 g/ha, Wild oat (1)): 10 | Wild oat (2) plant response rating ([6]; PREEMERGENCE, Rate 64 g/ha, Wild oat (2)): 20 | Wild oat (1) plant response rating ([6]; PREEMERGENCE, Rate 125 g/ha, Wild oat (1)): 20 | Wild oat (2) plant response rating ([6]; PREEMERGENCE, Rate 125 g/ha, Wild oat (2)): 30 | Wild oat (1) plant response rating ([6]; PREEMERGENCE, Rate 250 g/ha, Wild oat (1)): 30 | Wild oat (2) plant response rating ([6]; PREEMERGENCE, Rate 250 g/ha, Wild oat (2)): 50

CCOC(=O)COc1cc(-c2nn3c(c2Cl)CCCC3)c(F)cc1Cl [Compound 42]
Green foxtail plant response rating ([1]; POSTEMERGENCE, Rate 2 g/ha): 0 | Green foxtail plant response rating ([1]; POSTEMERGENCE, Rate 4 g/ha): 0 | Green foxtail plant response rating ([1]; POSTEMERGENCE, Rate 8 g/ha): 0 | Green foxtail plant response rating ([1]; POSTEMERGENCE, Rate 16 g/ha): 10 | Green foxtail plant response rating ([1]; POSTEMERGENCE, Rate 32 g/ha): 60 | Kochia plant response rating ([2]; POSTEMERGENCE, Rate 2 g/ha): 75 | Kochia plant response rating ([2]; POSTEMERGENCE, Rate 4 g/ha): 80 | Kochia plant response rating ([2]; POSTEMERGENCE, Rate 8 g/ha): 80 | Kochia plant response rating ([2]; POSTEMERGENCE, Rate 16 g/ha): 100 | Kochia plant response rating ([2]; POSTEMERGENCE, Rate 32 g/ha): 100 | Lambsquarters plant response rating ([3]; POSTEMERGENCE, Rate 2 g/ha): 55 | Lambsquarters plant response rating ([3]; POSTEMERGENCE, Rate 4 g/ha): 60 | Lambsquarters plant response rating ([3]; POSTEMERGENCE, Rate 8 g/ha): 60 | Lambsquarters plant response rating ([3]; POSTEMERGENCE, Rate 16 g/ha): 100 | Lambsquarters plant response rating ([3]; POSTEMERGENCE, Rate 32 g/ha): 100 | Rape plant response rating ([4]; POSTEMERGENCE, Rate 2 g/ha): 0 | Rape plant response rating ([4]; POSTEMERGENCE, Rate 4 g/ha): 20 | Rape plant response rating ([4]; POSTEMERGENCE, Rate 8 g/ha): 40 | Rape plant response rating ([4]; POSTEMERGENCE, Rate 16 g/ha): 70 | Rape plant response rating ([4]; POSTEMERGENCE, Rate 32 g/ha): 100 | Wild mustard plant response rating ([5]; POSTEMERGENCE, Rate 2 g/ha): 40 | Wild mustard plant response rating ([5]; POSTEMERGENCE, Rate 4 g/ha): 100 | Wild mustard plant response rating ([5]; POSTEMERGENCE, Rate 16 g/ha): 100 | Wild mustard plant response rating ([5]; POSTEMERGENCE, Rate 32 g/ha): 100 | Wild oat (1) plant response rating ([6]; POSTEMERGENCE, Rate 2 g/ha, stage (1) two to three leaves): 0 | Wild oat (2) plant response rating ([6]; POSTEMERGENCE, Rate 2 g/ha, stage (2) approximately four leaves or initial tillering): 0 | Wild oat (1) plant response rating [6, 7]: 0 | Wild oat (2) plant response rating [6, 8]: 0 | Wild oat (1) plant response rating [6, 9]: 0 | Wild oat (2) plant response rating [6, 10]: 0 | Wild oat (1) plant response rating [6, 11]: 0 | Wild oat (2) plant response rating [6, 12]: 0 | Wild oat (1) plant response rating [6, 13]: 10 | Wild oat (2) plant response rating [6, 14]: 10
